target: T1, HsCDK5/p25 (Homo sapiens, UniProt Q00535); assay: Kinase assay, luminescent ADP-Glo, 10 µM ATP; format: biochemical; conditions: duplicate, read-out: Kinase Enzymatic IC50 CDK5/p25
T1 construct: made in house; host or cells: Escherichia coli BL21 DE3 pLysS
Method: (§1) The synthesized compounds were tested using a luminescence-based assay against a panel of nine kinases: Pim-1, Pim-2, CDK5/p25, CDK9/CyclinT, Haspin, CK1ε, and GSK3β (from human); DYRK1A (from Rattus norvegicus); and CLK1 (from Mus musculus).
(§2) Kinase enzymatic activities were assayed with 10 µM ATP in 384-well plates using the luminescent ADP-Glo^TM assay (Promega, Madison, WI, USA) according to the recommendations of the manufacturer (see [56] for details on this method). The transmitted signal was measured using the Envision (PerkinElmer, Waltham, MA, USA) microplate luminometer and expressed in relative light unit (RLU). In order to determine the half maximal inhibitory concentration (IC50), the assays were performed in duplicate in the absence or presence of increasing doses of the tested compounds. GraphPad Prism6 software (GraphPad Software, San Diego, CA, USA) was used to fit dose–response curves and to determine the IC50 values. Kinase activities are expressed in % of maximal activity, i.e., measured in the absence of inhibitor. Peptide substrates were obtained from Proteogenix (Schiltigheim, France).
(§3) For kinases expressed in bacteria, the Escherichia coli BL21 DE3 pLysS strain (Invitrogen, ThermoFisher Scientific, Waltham, MA, USA) was transformed with pGEX-2T-1 (Sigma-Aldrich, St. Louis, MO, USA) containing the coding region of the corresponding kinase. For kinases expressed in Sf9 insect cells, the coding region of the corresponding kinase was cloned in pFastBac^TM vector. Purification of the recombinant kinases was performed following the protocol “Bac-to-Bac® Baculovirus Expression System” provided by the manufacturer (Invitrogen, ThermoFisher Scientific, Waltham, MA, USA).
(§4) To validate the kinase assay, model inhibitors were used for each tested enzyme: Staurosporine from Streptomyces sp. (#S5921, purity ≥ 95%, Sigma-Aldrich) for HsCK1ε; Indirubin-30-oxime (#I0404, purity ≥ 98%, Sigma-Aldrich) for HsGSK-3β, HsPim-1 and 2, human cyclin-dependent kinases, RnDYRK1A and MmCLK1; CHR-6494 (#SML0648, purity ≥ 98%, Sigma-Aldrich) for Haspin.

T1 sequence (Q00535 whole entry): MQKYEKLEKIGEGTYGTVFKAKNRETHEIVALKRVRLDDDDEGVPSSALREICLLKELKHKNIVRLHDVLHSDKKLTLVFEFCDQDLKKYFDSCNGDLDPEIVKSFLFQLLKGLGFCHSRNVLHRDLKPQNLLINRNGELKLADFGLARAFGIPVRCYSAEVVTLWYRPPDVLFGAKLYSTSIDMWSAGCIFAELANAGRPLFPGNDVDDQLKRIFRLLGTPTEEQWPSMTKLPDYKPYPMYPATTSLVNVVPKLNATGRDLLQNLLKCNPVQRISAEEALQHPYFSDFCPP
T1 sequence (Q15078 99-307 partner limits assumed): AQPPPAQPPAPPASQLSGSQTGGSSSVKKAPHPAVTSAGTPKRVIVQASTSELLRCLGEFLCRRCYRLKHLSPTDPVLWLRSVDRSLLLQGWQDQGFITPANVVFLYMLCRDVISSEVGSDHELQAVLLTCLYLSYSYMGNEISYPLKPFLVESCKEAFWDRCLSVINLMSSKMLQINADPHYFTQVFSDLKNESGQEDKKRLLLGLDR

Compound	IC50
CC(=O)c1ccc2oc3c(C(N)=O)c(O)cc(O)c3c2c1 [Compound 45, 8-Acetyl-1,3-dihydroxydibenzo[b,d]furan-4-carboxamide]	> 10 µM

target: T2, HsCDK9/CyclinT (Homo sapiens, UniProt P50750); assay: Kinase assay, luminescent ADP-Glo, 10 µM ATP; format: biochemical; conditions: duplicate, read-out: Kinase Enzymatic IC50 CDK9/CyclinT
T2 construct: made in house; host or cells: Sf9 insect cells (baculovirus, pFastBac)
T2 sequence (P50750 whole entry): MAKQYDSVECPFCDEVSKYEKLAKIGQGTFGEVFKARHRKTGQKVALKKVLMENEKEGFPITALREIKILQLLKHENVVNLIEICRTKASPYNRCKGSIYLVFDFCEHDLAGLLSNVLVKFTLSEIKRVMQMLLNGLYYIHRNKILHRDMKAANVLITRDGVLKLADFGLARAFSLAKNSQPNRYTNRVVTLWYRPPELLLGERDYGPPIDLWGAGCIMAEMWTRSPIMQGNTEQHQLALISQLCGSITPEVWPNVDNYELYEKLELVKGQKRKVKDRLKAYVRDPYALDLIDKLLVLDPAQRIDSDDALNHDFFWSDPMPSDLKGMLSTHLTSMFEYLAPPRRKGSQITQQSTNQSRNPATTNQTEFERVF
T2 sequence (O60563 whole entry partner): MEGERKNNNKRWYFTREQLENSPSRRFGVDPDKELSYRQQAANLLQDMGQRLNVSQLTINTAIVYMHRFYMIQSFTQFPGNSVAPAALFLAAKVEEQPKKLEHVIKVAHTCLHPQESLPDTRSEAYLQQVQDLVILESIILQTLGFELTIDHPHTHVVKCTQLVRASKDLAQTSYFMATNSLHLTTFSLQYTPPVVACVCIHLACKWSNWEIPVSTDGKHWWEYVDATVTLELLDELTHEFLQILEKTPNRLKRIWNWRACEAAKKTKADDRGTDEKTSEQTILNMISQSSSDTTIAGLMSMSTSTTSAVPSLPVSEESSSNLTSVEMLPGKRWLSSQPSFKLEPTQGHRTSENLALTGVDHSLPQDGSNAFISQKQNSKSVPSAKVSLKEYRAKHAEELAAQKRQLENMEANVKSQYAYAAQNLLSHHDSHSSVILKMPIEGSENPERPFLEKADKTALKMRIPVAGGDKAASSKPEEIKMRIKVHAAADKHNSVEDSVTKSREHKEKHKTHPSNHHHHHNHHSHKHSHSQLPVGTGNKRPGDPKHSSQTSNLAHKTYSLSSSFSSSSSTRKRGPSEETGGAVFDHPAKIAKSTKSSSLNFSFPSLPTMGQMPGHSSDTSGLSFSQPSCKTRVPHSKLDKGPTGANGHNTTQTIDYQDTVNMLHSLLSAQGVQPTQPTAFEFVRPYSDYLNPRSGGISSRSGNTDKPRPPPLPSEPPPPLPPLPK
Method: as §1, §2, §3, §4

Compound	IC50
CC(=O)c1ccc2oc3c(C(N)=O)c(O)cc(O)c3c2c1 [Compound 45, 8-Acetyl-1,3-dihydroxydibenzo[b,d]furan-4-carboxamide]	> 10 µM

target: T3, HsPim-1 (Homo sapiens, UniProt P11309); assay: Kinase assay, luminescent ADP-Glo, 10 µM ATP; format: biochemical; conditions: Table 1; ADP-Glo, 10 µM ATP, duplicate; read-out: Kinase Enzymatic IC50 Pim-1
T3 construct: made in house; host or cells: Escherichia coli BL21 DE3 pLysS
T3 sequence (P11309 whole entry): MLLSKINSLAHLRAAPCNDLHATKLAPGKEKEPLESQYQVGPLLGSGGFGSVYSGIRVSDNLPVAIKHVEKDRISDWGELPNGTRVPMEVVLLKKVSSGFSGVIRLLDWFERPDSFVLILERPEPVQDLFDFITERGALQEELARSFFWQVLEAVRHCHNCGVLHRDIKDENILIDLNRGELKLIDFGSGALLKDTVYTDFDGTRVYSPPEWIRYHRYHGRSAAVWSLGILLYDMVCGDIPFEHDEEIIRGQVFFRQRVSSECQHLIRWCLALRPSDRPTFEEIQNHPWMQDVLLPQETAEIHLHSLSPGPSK
Method: as §1, §2, §3, §4

Compound	IC50
COc1cc(OC)c2c(oc3ccc(F)cc32)c1C(N)=O [Compound 41, 8-Fluoro-1,3-dimethoxydibenzo[b,d]furan-4-carboxamide]	> 10000 nM
CC(=O)c1ccc2oc3c(C(N)=O)c(O)cc(O)c3c2c1 [Compound 45, 8-Acetyl-1,3-dihydroxydibenzo[b,d]furan-4-carboxamide]	280 nM

same assay, conditions: Table 2; ADP-Glo, 10 µM ATP, mean of n ≥ 3; read-out: IC50 Pim-1

Compound	IC50
CC(=O)c1ccc2oc3c(C(N)=O)c(O)cc(O)c3c2c1 [Compound 45, 8-Acetyl-1,3-dihydroxydibenzo[b,d]furan-4-carboxamide]	280 nM

target: T4, HsPim-2 (Homo sapiens, UniProt Q9P1W9); assay: Kinase assay, luminescent ADP-Glo, 10 µM ATP; format: biochemical; conditions: mean of n ≥ 3, read-out: IC50 Pim-2
T4 construct: made in house; host or cells: Escherichia coli BL21 DE3 pLysS
T4 sequence (Q9P1W9 whole entry): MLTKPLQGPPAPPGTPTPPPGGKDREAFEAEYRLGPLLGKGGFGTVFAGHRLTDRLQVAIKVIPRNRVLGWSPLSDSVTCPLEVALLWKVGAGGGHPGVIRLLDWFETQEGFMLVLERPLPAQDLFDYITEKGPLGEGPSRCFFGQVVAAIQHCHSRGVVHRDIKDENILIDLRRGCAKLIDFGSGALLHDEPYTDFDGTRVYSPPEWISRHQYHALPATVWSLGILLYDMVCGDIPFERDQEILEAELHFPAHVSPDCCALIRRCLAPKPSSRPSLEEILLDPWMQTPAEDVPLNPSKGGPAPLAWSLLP
Method: as §1, §2, §3, §4

Compound	IC50
CC(=O)c1ccc2oc3c(C(N)=O)c(O)cc(O)c3c2c1 [Compound 45, 8-Acetyl-1,3-dihydroxydibenzo[b,d]furan-4-carboxamide]	120 nM

target: T5, MmCLK1 (Mus musculus, UniProt P22518); assay: Kinase assay, luminescent ADP-Glo, 10 µM ATP; format: biochemical; conditions: ADP-Glo, 10 µM ATP, duplicate; read-out: Kinase Enzymatic IC50 CLK1
T5 construct: made in house; host or cells: Escherichia coli BL21 DE3 pLysS
T5 sequence (P22518 whole entry): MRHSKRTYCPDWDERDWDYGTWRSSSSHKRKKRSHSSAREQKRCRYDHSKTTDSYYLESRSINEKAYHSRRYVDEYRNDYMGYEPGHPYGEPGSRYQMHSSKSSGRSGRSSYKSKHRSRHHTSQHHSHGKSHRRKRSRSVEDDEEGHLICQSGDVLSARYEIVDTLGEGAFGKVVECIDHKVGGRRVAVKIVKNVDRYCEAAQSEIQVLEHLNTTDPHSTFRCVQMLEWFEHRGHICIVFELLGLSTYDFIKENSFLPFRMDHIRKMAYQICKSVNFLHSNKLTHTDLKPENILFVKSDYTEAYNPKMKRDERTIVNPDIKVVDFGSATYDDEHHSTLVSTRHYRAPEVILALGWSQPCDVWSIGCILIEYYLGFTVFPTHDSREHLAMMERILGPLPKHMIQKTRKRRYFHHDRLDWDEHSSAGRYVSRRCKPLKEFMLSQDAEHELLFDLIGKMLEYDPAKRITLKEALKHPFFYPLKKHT
Method: as §1, §2, §3, §4

Compound	IC50
CC(=O)c1ccc2oc3c(C(N)=O)c(O)cc(O)c3c2c1 [Compound 45, 8-Acetyl-1,3-dihydroxydibenzo[b,d]furan-4-carboxamide]	140 nM

same assay, conditions: ratio of IC50 values

Compound	fold less active than 44 against CLK1
CC(=O)c1ccc2oc3c(C(N)=O)c(O)cc(O)c3c2c1 [Compound 45, 8-Acetyl-1,3-dihydroxydibenzo[b,d]furan-4-carboxamide]	5 fold

target: RnDYRK1A-kd (Rattus norvegicus, UniProt Q63470); assay: Kinase assay, luminescent ADP-Glo, 10 µM ATP; format: biochemical; conditions: read-out: IC50 DYRK1A
Method: as §1, §2, §3, §4

Compound	IC50
COc1cc(OC)c2c(oc3ccc(F)cc32)c1C(N)=O [Compound 41, 8-Fluoro-1,3-dimethoxydibenzo[b,d]furan-4-carboxamide]	1330 nM

system: MV4-11 cells; assay: MTT cell proliferation assay; format: cell-based, human; conditions: Homo sapiens, MV4-11, 48 h, mean ± SEM
Text: (§5) Various types of hematological malignancies were selected for in vitro testing: the human acute myeloid leukemia (AML) cell line MV4-11, and the human chronic myeloid leukemia (CML) cell lines KU812 and K562. Indeed, Pim kinases are overexpressed in a wide range of hematopoietic malignancies. Solid tumors were also included in the panel of tested cell lines: MCF-7 (human breast adenocarcinoma), HT-29 (human colon adenocarcinoma), and HeLa (human cervical cancer) cells. Cytotoxic effects were evaluated using an MTT assay, and living cells were also counted with the trypan blue dye exclusion method for MV4-11, KU812, and K562 cells.
(§6) MV4-11, K562, and KU812 cell lines were obtained from the Deutshe Sammlung von Mikroorganismens und Zellkulturen (DSMZ) and maintained according to the supplier’s recommendations. All cell lines were cultured in RPMI, with 10% fetal bovine serum, 1% glutamine, and 1% penicillin/ streptomycin at 37 °C and 5% CO2.
(§7) MV4-11, K562, and KU812 cells’ viability was studied using a MTT cell proliferation assay.
(§8) MV4-11, K562, and KU812 cells were incubated with 10 μL of MTT working solution (5 g/L of methylthiazolyldiphenyl-tetrazolium bromide from Sigma Aldrich, Lyon, France) for 4 h. Cells were then lysed overnight at 37 °C with 100 μL of 10% SDS and 0.003% HCl. Optical density (OD) at 570 nm was measured using a spectrophotometer CLARIOstar® (BMG Labtech, Offenburg, Germany). Living cells were also counted with the trypan blue dye exclusion method. […] Data were collected from at least three independent experiments and the values reported are means ± standard errors of the mean (SEM).

Compound	IC50
CC(=O)c1ccc2oc3c(C(N)=O)c(O)cc(O)c3c2c1 [Compound 45, 8-Acetyl-1,3-dihydroxydibenzo[b,d]furan-4-carboxamide]	8.8 ± 0.9 µM

system: K562 cells; assay: MTT cell proliferation assay; format: cell-based; conditions: Homo sapiens, 48 h, mean ± SEM
Text: as §5, §6, §7, §8

Compound	IC50
CC(=O)c1ccc2oc3c(C(N)=O)c(O)cc(O)c3c2c1 [Compound 45, 8-Acetyl-1,3-dihydroxydibenzo[b,d]furan-4-carboxamide]	> 100 µM

system: KU812 cells; assay: MTT cell proliferation assay; format: cell-based; conditions: Homo sapiens, 48 h, mean ± SEM
Text: as §5, §6, §7, §8

Compound	IC50
CC(=O)c1ccc2oc3c(C(N)=O)c(O)cc(O)c3c2c1 [Compound 45, 8-Acetyl-1,3-dihydroxydibenzo[b,d]furan-4-carboxamide]	69.4 ± 12.9 µM

system: HeLa cells; assay: MTT cytotoxicity assay; format: cell-based; conditions: Homo sapiens, 72 h
Text: as §5
(§9) The cancer cell lines MCF-7, HT-29, and HeLa were obtained from Cell Bank of Rio de Janeiro, Brazil, and were grown in RPMI-1640 medium and L929 cells were grown in Dulbecco’s Modified Eagle’s Medium (DMEM). Both media were supplemented with fetal bovine serum (FBS) (10% of the final concentration) followed by treatment with penicillin and streptomycin as antibiotics (1% of the final concentration). The crude was incubated in the presence of CO2 atmosphere (5%) for 24 h with the temperature monitored and maintained at 37 °C.
(§10) MCF-7, HT-29, HeLa, and L929 cells (3×10^5 cells/mL) were plated in 96-well plates and incubated in the presence of CO2 atmosphere (5%) for 24 h at 37 °C. […] Then, 25 μL of MTT (5 mg/mL in PBS) were added to each well and the plates were left for another 3 h in the incubator at 37 °C and at the end of this period, the supernatant was aspirated. To perform the reading, 100 μL of dimethylsulfoxide (DMSO) were added in each well for the dissolution of the formazan crystals. The amount of formazan was measured by reading the plate at 560 nm absorbance. […] Each sample was tested in triplicate in two independent experiments.

Compound	IC50
CC(=O)c1ccc2oc3c(C(N)=O)c(O)cc(O)c3c2c1 [Compound 45, 8-Acetyl-1,3-dihydroxydibenzo[b,d]furan-4-carboxamide]	59.6 ± 7.6 µM

system: MCF-7 cells; assay: MTT cytotoxicity assay; format: cell-based; conditions: Homo sapiens, MCF7, 72 h
Text: as §5, §9, §10

Compound	IC50
CC(=O)c1ccc2oc3c(C(N)=O)c(O)cc(O)c3c2c1 [Compound 45, 8-Acetyl-1,3-dihydroxydibenzo[b,d]furan-4-carboxamide]	> 100 µM

system: L929 cells; assay: MTT assay, in vitro toxicity on normal cells; format: cell-based; conditions: 72 h, normal mouse fibroblasts
Text: as §5, §9, §10

Compound	IC50
CC(=O)c1ccc2oc3c(C(N)=O)c(O)cc(O)c3c2c1 [Compound 45, 8-Acetyl-1,3-dihydroxydibenzo[b,d]furan-4-carboxamide]	> 100 µM

system: not given; assay: not given; conditions: not given

Compound	melting point
COc1cc(OC)c2c(oc3ccc(F)cc32)c1C(N)=O [Compound 41, 8-Fluoro-1,3-dimethoxydibenzo[b,d]furan-4-carboxamide]	230 to 231 °C

From PMC8587151, “Dibenzofuran Derivatives Inspired from Cercosporamide as Dual Inhibitors of Pim and CLK1 Kinases” (Molecules, 2021)
